The target of assay [1] is T1, vasopressin receptors (V2 -receptors) (Sus scrofa, UniProt P32307).
T1 construct: from tissue; host or cells: hog kidney medullary membranes
Put plainly: 3H-vasopressin binding assay, hog kidney medullary membranes. The settings on record: competitive inhibition of 3H-vasopressin binding, read-out: Swine KB. As to the method:
Antagonistic activity toward the natural antidiuretic hormone (anti-ADH activity) is determined, in vitro, in the medullary tissue of hog or human kidneys and, in vivo, in the hydropenic rat. The in vitro assay procedures for vasopressin stimulated adenylate cyclase activation or vasopression binding activity are described by F. Stassen et al., J. Pharmacology and Experimental Therapeutics, 223, 50-54 (1982).
These values represent total and non-specific binding, respectively.

Assay [2] has as its system hydropenic rat. In words: Hydropenic rat screen (anti-ADH activity in vivo). The settings on record: dose required to lower urine osmolality to 300 m-Osmoles/kg; intraperitoneal; hydropenic male rats. As to the method:
The assay for anti-ADH activity in vivo is the hydropenic rat protocol described below:
Food and water are removed from male rats approximately 18 hours prior to testing. Animals are housed 4 per metabolism cage. At 0 hour, the test compound is administered intraperitoneally to the test group and an equivalent volume of vehicle is administered to both control groups (fasted and non-fasted). Urine volume and osmolality are measured every hour for 4 hours. Test values are recorded as ml of urine excreted (cumulative), mEq/rat electrolyte excreted, mg/rat urea excreted, and osmolality in milli-Osmoles/kg H2 O. A tolerance test is used to determine significance. Ed300 is defined as the dose of compound (μg/kg) required to lower urine osmolality to 300 m-Osmoles/kg.

The target of assay [3] is vasopressin stimulated adenylate cyclase. In words: Vasopressin stimulated adenylate cyclase activity, human kidney medullary tissue. Particulars: human kidney medullary membrane. Format: biochemical. As to the method:
(§1) In the test procedure for assay of adenylate cyclase activity, the amount of ^32 P/cAMP formed in the absence of medullary membrane is determined (blank). The blank value is subtracted from all experimental data. The compound is tested for its effect on basal adenylate cyclase activity and/or on vasopressin stimulated activity. Each determination is carried out in triplicate. The Ka value is derived from a Lineweaver-Burkeplot. Rel. Vmax =(Vmax drug/Vmax vasopressin)×100. Ki =I/[Ka'/Ka)-1] where I is the concentration of the antagonist, and Ka' and Ka are the concentrations of vasopressin required to give half maximal activity of adenylate cyclase in the presence and absence of antagonist, respectively.

Assay [4] shares this target. Put plainly: Vasopressin stimulated adenylate cyclase activity, hog kidney medullary tissue. Format: biochemical. Particulars: swine kidney medullary membrane. As to the method:
as §1

Starred links: 1 amine or outer side, 2 acyl side, 3 side chain; linkers in the order of their positions; H or OH if unused. Positions of bridges follow the written chain, without caps; N, C: chain ends. Non-standard residues stand in square brackets, D forms with d. Residues, ends and D or L forms follow the SMILES beside them. *: point of attachment. X1 = O=C(CC1(S[*:2])CCCCC1)[*:1]; Agmatine = N=C(N)NCCCCN*; NH(CH2)5NH2 = NCCCCCN*; NH(CH2)4NH2 = NCCCCN*

T1 sequence (P32307 whole entry): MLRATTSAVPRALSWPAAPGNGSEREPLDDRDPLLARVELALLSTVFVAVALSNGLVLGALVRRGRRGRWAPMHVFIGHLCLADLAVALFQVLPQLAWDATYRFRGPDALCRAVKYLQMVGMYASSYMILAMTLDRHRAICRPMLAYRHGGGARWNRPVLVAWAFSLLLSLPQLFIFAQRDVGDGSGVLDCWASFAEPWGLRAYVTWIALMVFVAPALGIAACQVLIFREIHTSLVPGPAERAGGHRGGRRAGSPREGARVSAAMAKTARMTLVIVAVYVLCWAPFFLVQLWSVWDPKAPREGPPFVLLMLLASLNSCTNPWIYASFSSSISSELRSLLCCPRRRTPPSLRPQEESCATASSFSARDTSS

In the case of `CCOc1ccc(C[C@H]2NC(=O)CC3(CCCCC3)SSC[C@@H](C(=O)NCCCCCN)NC(=O)[C@H](CC(N)=O)NC(=O)[C@H](C(C)C)NC(=O)[C@H](Cc3ccccc3)NC2=O)cc1` [F, [1-(β-Mercapto-β,β -cyclopentamethylenepropionic acid)-2-(O--ethyl-D-tyrosine)-4-valine-7-desproline-8-desarginine-9-desglycinamide-7-(1,5-diaminopentane)]-vasopressin], the Kb in assay [1] came out at 0.019 µM.

`CC(C)[C@@H]1NC(=O)[C@H](Cc2ccccc2)NC(=O)[C@@H](Cc2ccc(O)cc2)NC(=O)CC2(CCCCC2)SSC[C@@H](C(=O)N2CCC[C@H]2C(=O)NCCCCCN)NC(=O)[C@H](CC(N)=O)NC1=O` [A, [1-(β-Mercapto-β,β -cyclopentamethylenepropionic acid)-2-D-tyrosine-4-valine-8-(1,5-diaminopentane)-8-desarginine-9-desglycineamide]-vasopressin] (HELM PEPTIDE1{[dY].F.V.N.C.P.[NCCCCCN[*:1]]}|CHEM1{[O=C(CC1(S[*:2])CCCCC1)[*:1]]}$PEPTIDE1,CHEM1,1:R1-1:R1|PEPTIDE1,CHEM1,5:R3-1:R2$$$V2.0): the Kb in assay [1] was determined as 0.22 µM.

In the case of `CCOc1ccc(C[C@H]2NC(=O)CC3(CCCCC3)SSC[C@@H](C(=O)N3CCC[C@H]3C(=O)NCCCCN)NC(=O)[C@H](CC(N)=O)NC(=O)[C@H](C(C)C)NC(=O)[C@H](Cc3ccccc3)NC2=O)cc1` [C, [1-(β-Mercapto-β,β -cyclopentamethylenepropionic acid)-2-(O--ethyl-D-tyrosine)-4-valine-8-(1,4-diaminobutane)-8-desarginine-9-desglycinamide]-vasopressin] ([dY](Et)FVNCP-{NH(CH2)4NH2}; linker N-5 via X1), the “Rat ED300” value in assay [2] is 0.019 mg/kg. Also, the inhibition constant Ki is 0.0075 µM in assay [3] and 0.0064 µM in assay [4]. Moreover, the Kb in assay [1] stood at 0.0092 µM.

Take `CCOc1ccc(C[C@H]2NC(=O)CC3(CCCCC3)SSC[C@@H](C(=O)N3CCC[C@H]3C(=O)NCCCCN=C(N)N)NC(=O)[C@H](CC(N)=O)NC(=O)[C@H](C(C)C)NC(=O)[C@H](Cc3ccccc3)NC2=O)cc1` [G, [1-(β-Mercapto-β,β -cyclopentamethylenepropionic acid)-2-(O--ethyl-D-tyrosine)-4-valine-8-desarginine-9-desglycinamide-8-(1,4-aminoguanidinobutane)]-vasopressin] ([dY](Et)FVNCP-Agmatine; linker N-5 via X1): the Kb in assay [1] was found to be 0.014 µM.

For the compound `CC(C)[C@@H]1NC(=O)[C@H](Cc2ccccc2)NC(=O)[C@@H](Cc2ccc(O)cc2)NC(=O)CC2(CCCCC2)SSC[C@@H](C(=O)N2CCC[C@H]2C(=O)O)NC(=O)[C@H](CC(N)=O)NC1=O` [E, [1-(β-Mercapto-β,β -cyclopentamethylenepropionic acid)-2-D-tyrosine-4-valine-8-desarginine-9-desglycinamide]-vasopressin] (HELM PEPTIDE1{[dY].F.V.N.C.P}|CHEM1{[O=C(CC1(S[*:2])CCCCC1)[*:1]]}$PEPTIDE1,CHEM1,1:R1-1:R1|PEPTIDE1,CHEM1,5:R3-1:R2$$$V2.0), the Kb in assay [1] stood at 17 µM.

Take `CCOc1ccc(C[C@H]2NC(=O)CC3(CCCCC3)SSC[C@@H](C(=O)N3CCC[C@H]3C(=O)O)NC(=O)[C@H](CC(N)=O)NC(=O)[C@H](C(C)C)NC(=O)[C@H](Cc3ccccc3)NC2=O)cc1` [D, [1-(β-Mercapto-β,β -cyclopentamethylenepropionic acid)-2-(O--ethyl-D-tyrosine)-4-valine-8-desarginine-9-desglycinamide]-vasopressin] ([dY](Et)FVNCP-OH; linker N-5 via X1): the Kb in assay [1] is 0.41 µM.

For `CCOc1ccc(C[C@H]2NC(=O)CC3(CCCCC3)SSC[C@@H](C(=O)N3CCC[C@H]3C(=O)NCCCCCN)NC(=O)[C@H](CC(N)=O)NC(=O)[C@H](C(C)C)NC(=O)[C@H](Cc3ccccc3)NC2=O)cc1` [B, [1-(β-Mercapto-β,β -cyclopentamethylenepropionic acid)-2-(O--ethyl-D-tyrosine)-4-valine-8-(1,5-diaminopentane)-8-desarginine-9-desglycinamide]-vasopressin] ([dY](Et)FVNCP-{NH(CH2)5NH2}; linker N-5 via X1), the Kb in assay [1] is 0.029 µM.

The term Ki denotes a measure of affinity in units of concentration, obtained from inhibition or displacement.

The record behind these values is patent US4543349A, “Basic heptapeptide vasopressin antagonists” (priority 1984, dated 1985).
